The subject of assay [1] is Leukemia 60 cell line. As to the kind of experiment: Median toxic concentration of compound tested in vitro against human leukemia 60 cells. Conditions: read-out: TC50 (the source's name). The format is functional.
Assay [2] has as its system Leukemia 60 cell line. The experiment in a line: Median growth inhibitory concentration of compound tested in vitro against human leukemia 60 cells. The format is functional.

The structures appear in SMILES notation.

`CCCCCCCCCCCCCC=C[C@@H](O)[C@@H](N)CO` [SPHINGOSINE]: the CC50 in the assay on Leukemia 60 cell line [1] came out at 2420 nM. For the same compound, the GC50 in the assay on Leukemia 60 cell line [2] was 1240 nM.
On to `CCCCCCCCCCCCC/C=C\C(O)C(CO)/N=C(\S)NCCc1ccccc1` (stereo not given), for which, in the assay with Leukemia 60 cell line [1], the CC50 is 2530 nM. Moreover, the GC50 with Leukemia 60 cell line [2] was 640 nM.
The matching figures for `S=C=NCCc1ccccc1` [PHENETHYLISOTHIOCYANATE]: 1370 nM and 840 nM.
Regarding `CCCCCCCCCCCCCCC[C@@H](O)[C@@H](N)CO` [DIHYDROSPINGOSINE], in the assay with Leukemia 60 cell line [1], the CC50 worked out at 2550 nM. Also, the GC50 in the assay on Leukemia 60 cell line [2] amounted to 490 nM.
Take `CCCCCCCCCCCCCCCC(O)C(CO)/N=C(\S)NCCc1ccccc1` (stereo not given): the CC50 in the assay with Leukemia 60 cell line [1] came out at 2370 nM. For the same compound, the GC50 in the assay with Leukemia 60 cell line [2] is 1600 nM.

These data come from ChEMBL document CHEMBL1132856, “Antitumour activity of sphingoid base adducts of phenethyl isothiocyanate” (2000).
